From ChEMBL document CHEMBL3627608, “Crystal structures of human RIP2 kinase catalytic domain complexed with ATP-competitive inhibitors: Foundations for understanding inhibitor selectivity” (Bioorg Med Chem, 2015)

Tests used:
[1] = biological target: LIM domain kinase 1 (Homo sapiens) (UniProt P53667); assay: Inhibition of LIMK1 (unknown origin) at 10 uM after 120 mins P33 radiolabeled kinase activity assay
[2] = biological target: Serine/threonine-protein kinase PLK3 (Homo sapiens) (UniProt Q9H4B4); assay: Inhibition of PLK3 (unknown origin) at 10 uM after 120 mins P33 radiolabeled kinase activity assay
[3] = biological target: T1, Serine/threonine-protein kinase NLK (Homo sapiens) (UniProt Q9UBE8); assay: Inhibition of NLK (unknown origin) at 10 uM after 120 mins P33 radiolabeled kinase activity assay
T1 sequence (whole entry): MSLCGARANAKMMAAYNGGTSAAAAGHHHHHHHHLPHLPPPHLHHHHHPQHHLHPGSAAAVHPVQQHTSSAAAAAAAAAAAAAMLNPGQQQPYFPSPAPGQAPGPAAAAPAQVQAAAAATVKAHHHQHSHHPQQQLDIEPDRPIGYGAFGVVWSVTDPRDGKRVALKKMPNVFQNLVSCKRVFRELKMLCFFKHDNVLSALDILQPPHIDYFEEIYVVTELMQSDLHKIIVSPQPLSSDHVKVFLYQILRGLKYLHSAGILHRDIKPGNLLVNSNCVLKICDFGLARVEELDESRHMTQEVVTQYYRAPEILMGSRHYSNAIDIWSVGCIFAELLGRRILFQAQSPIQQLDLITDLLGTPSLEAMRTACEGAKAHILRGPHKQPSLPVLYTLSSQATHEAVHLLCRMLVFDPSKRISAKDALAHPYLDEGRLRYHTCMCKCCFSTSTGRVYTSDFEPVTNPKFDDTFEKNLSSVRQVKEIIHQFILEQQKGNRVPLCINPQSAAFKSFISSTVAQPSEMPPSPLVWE

[4] = biological target: Serine/threonine-protein kinase 32B (Homo sapiens) (UniProt Q9NY57); assay: Inhibition of STK32B (unknown origin) at 10 uM after 120 mins P33 radiolabeled kinase activity assay
[5] = biological target: Cyclin-dependent kinase 2/cyclin A (Homo sapiens) (UniProt P24941+P20248+P78396); assay: Inhibition of CDK2/cyclin A (unknown origin) at 10 uM after 120 mins P33 radiolabeled kinase activity assay; format: protein-complex assay
[6] = biological target: Tyrosine-protein kinase Yes (Homo sapiens) (UniProt P07947); assay: Inhibition of YES (unknown origin) at 10 uM after 120 mins P33 radiolabeled kinase activity assay
[7] = biological target: T2, Mitogen-activated protein kinase kinase kinase 5 (Homo sapiens) (UniProt Q99683); assay: Inhibition of ASK1 (unknown origin) at 10 uM after 120 mins P33 radiolabeled kinase activity assay
T2 sequence (whole entry): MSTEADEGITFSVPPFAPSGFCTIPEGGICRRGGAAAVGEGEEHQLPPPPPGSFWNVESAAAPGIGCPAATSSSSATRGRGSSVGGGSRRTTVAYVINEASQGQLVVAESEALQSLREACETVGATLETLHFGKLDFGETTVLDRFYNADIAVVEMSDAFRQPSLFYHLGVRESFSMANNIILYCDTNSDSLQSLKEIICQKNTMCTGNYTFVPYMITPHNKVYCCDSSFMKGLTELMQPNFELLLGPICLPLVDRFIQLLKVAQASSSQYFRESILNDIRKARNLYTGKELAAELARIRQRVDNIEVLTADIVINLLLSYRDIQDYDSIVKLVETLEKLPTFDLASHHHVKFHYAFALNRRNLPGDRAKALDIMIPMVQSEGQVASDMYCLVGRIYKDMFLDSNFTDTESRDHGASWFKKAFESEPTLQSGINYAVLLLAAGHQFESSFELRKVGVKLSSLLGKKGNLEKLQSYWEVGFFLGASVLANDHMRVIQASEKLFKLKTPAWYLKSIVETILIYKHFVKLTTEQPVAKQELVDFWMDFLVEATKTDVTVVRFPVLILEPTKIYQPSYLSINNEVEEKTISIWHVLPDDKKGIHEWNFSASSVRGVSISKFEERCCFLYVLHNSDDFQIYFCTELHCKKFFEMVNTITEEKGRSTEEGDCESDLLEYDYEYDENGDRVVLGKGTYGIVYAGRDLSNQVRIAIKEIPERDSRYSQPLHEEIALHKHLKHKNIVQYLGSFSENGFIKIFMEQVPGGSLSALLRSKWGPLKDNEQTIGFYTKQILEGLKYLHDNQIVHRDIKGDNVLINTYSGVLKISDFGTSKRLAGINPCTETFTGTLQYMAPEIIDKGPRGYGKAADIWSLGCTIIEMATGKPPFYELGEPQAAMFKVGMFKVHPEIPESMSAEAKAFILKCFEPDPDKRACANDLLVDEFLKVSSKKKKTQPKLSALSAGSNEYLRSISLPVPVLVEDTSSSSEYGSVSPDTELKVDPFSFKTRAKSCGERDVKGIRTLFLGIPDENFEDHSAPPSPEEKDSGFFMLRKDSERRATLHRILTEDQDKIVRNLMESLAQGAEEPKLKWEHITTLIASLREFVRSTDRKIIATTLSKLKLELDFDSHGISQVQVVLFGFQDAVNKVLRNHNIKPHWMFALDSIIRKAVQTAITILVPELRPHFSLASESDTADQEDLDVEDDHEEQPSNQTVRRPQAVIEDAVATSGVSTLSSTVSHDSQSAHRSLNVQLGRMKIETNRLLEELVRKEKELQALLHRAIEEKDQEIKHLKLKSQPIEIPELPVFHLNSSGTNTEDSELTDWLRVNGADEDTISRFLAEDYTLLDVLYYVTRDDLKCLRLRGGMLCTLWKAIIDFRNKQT

Sequence of Serine/threonine-protein kinase PLK3 (Homo sapiens) (Q9H4B4 whole entry, looked up): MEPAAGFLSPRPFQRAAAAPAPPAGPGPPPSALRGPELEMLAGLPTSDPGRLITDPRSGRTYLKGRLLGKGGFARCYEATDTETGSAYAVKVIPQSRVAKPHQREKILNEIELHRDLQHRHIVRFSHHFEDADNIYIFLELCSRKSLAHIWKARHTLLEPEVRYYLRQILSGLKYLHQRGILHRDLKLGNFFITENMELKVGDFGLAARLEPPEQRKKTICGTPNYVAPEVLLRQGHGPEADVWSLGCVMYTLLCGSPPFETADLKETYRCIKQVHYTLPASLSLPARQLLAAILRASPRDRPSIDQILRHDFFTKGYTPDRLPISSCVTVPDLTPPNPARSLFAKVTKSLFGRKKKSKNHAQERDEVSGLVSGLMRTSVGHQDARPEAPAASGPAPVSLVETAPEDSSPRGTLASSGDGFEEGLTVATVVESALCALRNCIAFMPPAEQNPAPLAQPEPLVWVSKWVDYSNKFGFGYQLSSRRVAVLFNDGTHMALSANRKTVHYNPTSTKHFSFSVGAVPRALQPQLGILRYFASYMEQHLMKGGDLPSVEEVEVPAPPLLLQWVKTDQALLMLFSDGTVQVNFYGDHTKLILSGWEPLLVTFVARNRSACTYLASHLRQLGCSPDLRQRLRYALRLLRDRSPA
Sequence of Tyrosine-protein kinase Yes (Homo sapiens) (P07947 2-543 limits assumed): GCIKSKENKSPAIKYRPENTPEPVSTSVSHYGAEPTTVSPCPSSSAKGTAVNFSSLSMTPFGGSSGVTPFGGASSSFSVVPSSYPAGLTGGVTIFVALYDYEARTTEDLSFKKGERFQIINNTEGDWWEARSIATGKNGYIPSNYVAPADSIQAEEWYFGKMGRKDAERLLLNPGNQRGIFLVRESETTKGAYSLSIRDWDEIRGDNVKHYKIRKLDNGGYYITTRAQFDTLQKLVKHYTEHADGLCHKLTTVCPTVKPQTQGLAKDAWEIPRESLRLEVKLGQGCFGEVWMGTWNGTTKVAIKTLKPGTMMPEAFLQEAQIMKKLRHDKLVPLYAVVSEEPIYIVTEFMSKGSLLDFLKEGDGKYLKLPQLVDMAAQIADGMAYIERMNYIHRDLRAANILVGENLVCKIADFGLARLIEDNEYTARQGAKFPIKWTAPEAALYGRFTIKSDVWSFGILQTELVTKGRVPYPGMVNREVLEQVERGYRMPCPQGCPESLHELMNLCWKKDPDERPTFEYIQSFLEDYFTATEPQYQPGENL
Sequence of LIM domain kinase 1 (Homo sapiens) (P53667 whole entry, looked up, the tested form may be a part): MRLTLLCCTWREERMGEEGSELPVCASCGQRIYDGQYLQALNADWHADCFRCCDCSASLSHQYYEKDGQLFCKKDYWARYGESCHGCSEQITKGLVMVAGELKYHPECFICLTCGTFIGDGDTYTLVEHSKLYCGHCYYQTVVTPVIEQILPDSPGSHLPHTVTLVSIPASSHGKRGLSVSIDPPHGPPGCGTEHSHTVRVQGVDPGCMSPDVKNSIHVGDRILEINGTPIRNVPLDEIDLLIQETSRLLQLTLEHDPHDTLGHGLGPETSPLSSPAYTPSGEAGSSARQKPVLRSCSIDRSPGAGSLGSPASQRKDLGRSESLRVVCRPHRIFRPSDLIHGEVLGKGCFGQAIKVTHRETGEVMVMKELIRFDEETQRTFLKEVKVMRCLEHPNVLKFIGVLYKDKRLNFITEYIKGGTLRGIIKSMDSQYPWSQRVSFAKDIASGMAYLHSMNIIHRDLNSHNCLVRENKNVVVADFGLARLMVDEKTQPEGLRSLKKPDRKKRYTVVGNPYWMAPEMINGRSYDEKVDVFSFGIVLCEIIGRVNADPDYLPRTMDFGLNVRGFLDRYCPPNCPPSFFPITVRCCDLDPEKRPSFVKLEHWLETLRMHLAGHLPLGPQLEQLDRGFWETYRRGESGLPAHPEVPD
Sequence of Serine/threonine-protein kinase 32B (Homo sapiens) (Q9NY57 whole entry): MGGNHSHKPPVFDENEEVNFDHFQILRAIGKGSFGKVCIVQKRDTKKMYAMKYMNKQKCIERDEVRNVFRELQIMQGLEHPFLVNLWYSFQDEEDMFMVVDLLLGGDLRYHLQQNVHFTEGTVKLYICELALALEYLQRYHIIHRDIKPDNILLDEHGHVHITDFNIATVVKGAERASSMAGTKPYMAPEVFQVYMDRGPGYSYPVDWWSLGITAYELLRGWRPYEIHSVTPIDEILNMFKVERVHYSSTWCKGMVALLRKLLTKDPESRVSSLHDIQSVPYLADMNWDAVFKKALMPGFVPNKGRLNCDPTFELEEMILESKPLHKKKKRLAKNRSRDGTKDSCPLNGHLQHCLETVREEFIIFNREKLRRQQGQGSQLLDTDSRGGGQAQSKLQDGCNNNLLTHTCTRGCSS

SMILES: COCCNC(=O)c1ccc2c(c1)nc(-c1cnc(-c3ccc(Cl)cc3)[nH]1)n2CCOC
- inhibition [1]: 8.6%
- inhibition [2]: 0.99%
- inhibition [3]: 55.2%
- inhibition [4]: -6.19%
- inhibition [5]: -6.73%
- inhibition [6]: 70.8%
- inhibition [7]: 19.7%

SMILES: CS(=O)(=O)c1cccc(Nc2nccc(-c3sc(N4CCOCC4)nc3-c3cccc(NS(=O)(=O)c4c(F)cccc4F)c3)n2)c1
- inhibition [1]: 99.2%
- inhibition [2]: 3.68%
- inhibition [3]: 88.6%
- inhibition [4]: 24.6%
- inhibition [5]: 62.9%
- inhibition [6]: 99.9%
- inhibition [7]: 9.88%

SMILES: CC(C)(C)c1cc(NC(=O)Nc2ccc(Oc3ccncc3)cc2)no1
- inhibition [1]: 75.6%
- inhibition [2]: -1.93%
- inhibition [3]: 51.5%
- inhibition [4]: 9.05%
- inhibition [5]: 6.27%
- inhibition [6]: 82%
- inhibition [7]: 19.8%
